According to PubChem BioAssay AID1259407 (Chemical Carcinogenesis Research Information System (CCRIS), 2018):
The source made the active and inactive calls. How the calls were made is not given here.

System: CCRIS mutagenicity, Ames/micronucleus/aberration tests
Assay: CCRIS mutagenicity studies

For `CC=O`, the mutagenic call (End Point: In vitro chromosomal aberrations, Test System: Chinese hamster lung (CHL/IU) cells, Metabolic Activation: None) was “active; positive (structural changes)”, the mutagenic call (End Point: In vitro chromosomal aberrations, Test System: Chinese hamster lung (CHL/IU) cells, Metabolic Activation: Rat, Liver, S9, Phenobarbital and 5,6-benzoflavone) was “active; positive (structural changes)” and the mutagenic call (End Point: In vivo micronucleus, Test System: Peripheral blood reticulocytes, Species: Mouse, Strain/Sex: Aldh2+/+ aldehyde dehydrogenase-2 sufficient /male, Route: Inhalation) was “inactive; negative”. The mutagenic call (End Point: In vivo micronucleus, Test System: Peripheral blood reticulocytes, Species: Mouse, Strain/Sex: Aldh2+/+ aldehyde dehydrogenase-2 sufficient /male, Route: Oral) was “inactive; negative”, the mutagenic call (End Point: In vivo micronucleus, Test System: Peripheral blood reticulocytes, Species: Mouse, Strain/Sex: Aldh2-/- aldehyde dehydrogenase-2 null /male, Route: Inhalation) was “active; positive” and the mutagenic call (End Point: In vivo micronucleus, Test System: Peripheral blood reticulocytes, Species: Mouse, Strain/Sex: Aldh2-/- aldehyde dehydrogenase-2 null /male, Route: Oral) was “active; positive”. For the same compound, the mutagenic call (Test System: AMES SALMONELLA TYPHIMURIUM, Strain/Indicator: TA98, Metabolic Activation: HAMSTER, LIVER, S-9, AROCLOR 1254, Method: STANDARD PLATE) was “inactive; negative”, the mutagenic call (Test System: AMES SALMONELLA TYPHIMURIUM, Strain/Indicator: TA98, Metabolic Activation: NONE, Method: GAS EXPOSURE) was “inactive; negative” and the mutagenic call (Test System: AMES SALMONELLA TYPHIMURIUM, Strain/Indicator: TA98, Metabolic Activation: NONE, Method: PREINCUBATION) was “inactive; negative”. For the same compound, the mutagenic call (Test System: AMES SALMONELLA TYPHIMURIUM, Strain/Indicator: TA98, Metabolic Activation: NONE, Method: STANDARD PLATE) was “inactive; negative”, the mutagenic call (Test System: AMES SALMONELLA TYPHIMURIUM, Strain/Indicator: TA98, Metabolic Activation: RAT LIVER S-9, PHENOBARBITAL AND BETA-NAPHTHOFLAVONE, Method: PREINCUBATION) was “inactive; negative” and the mutagenic call (Test System: AMES SALMONELLA TYPHIMURIUM, Strain/Indicator: TA98, Metabolic Activation: RAT, LIVER, S-9, AROCLOR 1254, Method: PREINCUBATION) was “inactive; negative”. The mutagenic call (Test System: AMES SALMONELLA TYPHIMURIUM, Strain/Indicator: TA98, Metabolic Activation: RAT, LIVER, S-9, AROCLOR 1254, Method: STANDARD PLATE) was “inactive; negative”, the mutagenic call (Test System: AMES SALMONELLA TYPHIMURIUM, Strain/Indicator: TA98, Metabolic Activation: RAT, LIVER, S-9, PHENOBARBITAL AND BETA-NAPHTHOFLAVONE, Method: GAS EXPOSURE) was “inactive; negative” and the mutagenic call (Test System: AMES SALMONELLA TYPHIMURIUM, Strain/Indicator: TA100, Metabolic Activation: HAMSTER, LIVER, S-9, AROCLOR 1254, Method: STANDARD PLATE) was “inactive; negative”. For the same compound, the mutagenic call (Test System: AMES SALMONELLA TYPHIMURIUM, Strain/Indicator: TA100, Metabolic Activation: MOUSE LIVER S-9, AROCLOR 1254, Method: VAPOR PHASE) was “inactive; negative”, the mutagenic call (Test System: AMES SALMONELLA TYPHIMURIUM, Strain/Indicator: TA100, Metabolic Activation: NONE, Method: GAS EXPOSURE) was “inactive; negative” and the mutagenic call (Test System: AMES SALMONELLA TYPHIMURIUM, Strain/Indicator: TA100, Metabolic Activation: NONE, Method: PREINCUBATION) was “inactive; negative”. The mutagenic call (Test System: AMES SALMONELLA TYPHIMURIUM, Strain/Indicator: TA100, Metabolic Activation: NONE, Method: STANDARD PLATE) was “inactive; negative”, the mutagenic call (Test System: AMES SALMONELLA TYPHIMURIUM, Strain/Indicator: TA100, Metabolic Activation: NONE, Method: VAPOR PHASE) was “inactive; negative” and the mutagenic call (Test System: AMES SALMONELLA TYPHIMURIUM, Strain/Indicator: TA100, Metabolic Activation: RAT LIVER S-9, AROCLOR 1254, Method: VAPOR PHASE) was “inactive; negative”. For the same compound, the mutagenic call (Test System: AMES SALMONELLA TYPHIMURIUM, Strain/Indicator: TA100, Metabolic Activation: RAT LIVER S-9, PHENOBARBITAL AND BETA-NAPHTHOFLAVONE, Method: PREINCUBATION) was “inactive; negative”, the mutagenic call (Test System: AMES SALMONELLA TYPHIMURIUM, Strain/Indicator: TA100, Metabolic Activation: RAT, LIVER, S-9, AROCLOR 1254, Method: PREINCUBATION) was “inactive; negative” and the mutagenic call (Test System: AMES SALMONELLA TYPHIMURIUM, Strain/Indicator: TA100, Metabolic Activation: RAT, LIVER, S-9, AROCLOR 1254, Method: STANDARD PLATE) was “inactive; negative”. For the same compound, the mutagenic call (Test System: AMES SALMONELLA TYPHIMURIUM, Strain/Indicator: TA100, Metabolic Activation: RAT, LIVER, S-9, PHENOBARBITAL AND BETA-NAPHTHOFLAVONE, Method: GAS EXPOSURE) was “inactive; negative”, the mutagenic call (Test System: AMES SALMONELLA TYPHIMURIUM, Strain/Indicator: TA102, Metabolic Activation: MOUSE LIVER S-9, AROCLOR 1254, Method: VAPOR PHASE) was “inactive; negative” and the mutagenic call (Test System: AMES SALMONELLA TYPHIMURIUM, Strain/Indicator: TA102, Metabolic Activation: NONE, Method: PREINCUBATION) was “inactive; negative”. The mutagenic call (Test System: AMES SALMONELLA TYPHIMURIUM, Strain/Indicator: TA102, Metabolic Activation: NONE, Method: VAPOR PHASE) was “inactive; negative”, the mutagenic call (Test System: AMES SALMONELLA TYPHIMURIUM, Strain/Indicator: TA102, Metabolic Activation: RAT, LIVER, S-9, AROCLOR 1254, Method: PREINCUBATION) was “inactive; negative” and the mutagenic call (Test System: AMES SALMONELLA TYPHIMURIUM, Strain/Indicator: TA104, Metabolic Activation: MOUSE LIVER S-9, AROCLOR 1254, Method: VAPOR PHASE) was “inactive; negative”. The mutagenic call (Test System: AMES SALMONELLA TYPHIMURIUM, Strain/Indicator: TA104, Metabolic Activation: NONE, Method: VAPOR PHASE) was “inactive; negative”, the mutagenic call (Test System: AMES SALMONELLA TYPHIMURIUM, Strain/Indicator: TA104, Metabolic Activation: RAT LIVER S-9, AROCLOR 1254, Method: VAPOR PHASE) was “inactive; negative” and the mutagenic call (Test System: AMES SALMONELLA TYPHIMURIUM, Strain/Indicator: TA1535, Metabolic Activation: HAMSTER, LIVER, S-9, AROCLOR 1254, Method: STANDARD PLATE) was “inactive; negative”. The mutagenic call (Test System: AMES SALMONELLA TYPHIMURIUM, Strain/Indicator: TA1535, Metabolic Activation: NONE, Method: GAS EXPOSURE) was “inactive; negative”, the mutagenic call (Test System: AMES SALMONELLA TYPHIMURIUM, Strain/Indicator: TA1535, Metabolic Activation: NONE, Method: PREINCUBATION) was “inactive; negative” and the mutagenic call (Test System: AMES SALMONELLA TYPHIMURIUM, Strain/Indicator: TA1535, Metabolic Activation: NONE, Method: STANDARD PLATE) was “inactive; negative”. For the same compound, the mutagenic call (Test System: AMES SALMONELLA TYPHIMURIUM, Strain/Indicator: TA1535, Metabolic Activation: RAT LIVER S-9, PHENOBARBITAL AND BETA-NAPHTHOFLAVONE, Method: PREINCUBATION) was “inactive; negative”, the mutagenic call (Test System: AMES SALMONELLA TYPHIMURIUM, Strain/Indicator: TA1535, Metabolic Activation: RAT, LIVER, S-9, AROCLOR 1254, Method: STANDARD PLATE) was “inactive; negative” and the mutagenic call (Test System: AMES SALMONELLA TYPHIMURIUM, Strain/Indicator: TA1535, Metabolic Activation: RAT, LIVER, S-9, PHENOBARBITAL AND BETA-NAPHTHOFLAVONE, Method: GAS EXPOSURE) was “inactive; negative”. For the same compound, the mutagenic call (Test System: AMES SALMONELLA TYPHIMURIUM, Strain/Indicator: TA1537, Metabolic Activation: HAMSTER, LIVER, S-9, AROCLOR 1254, Method: STANDARD PLATE) was “inactive; negative”, the mutagenic call (Test System: AMES SALMONELLA TYPHIMURIUM, Strain/Indicator: TA1537, Metabolic Activation: NONE, Method: GAS EXPOSURE) was “inactive; negative” and the mutagenic call (Test System: AMES SALMONELLA TYPHIMURIUM, Strain/Indicator: TA1537, Metabolic Activation: NONE, Method: PREINCUBATION) was “inactive; negative”. For the same compound, the mutagenic call (Test System: AMES SALMONELLA TYPHIMURIUM, Strain/Indicator: TA1537, Metabolic Activation: NONE, Method: STANDARD PLATE) was “inactive; negative”, the mutagenic call (Test System: AMES SALMONELLA TYPHIMURIUM, Strain/Indicator: TA1537, Metabolic Activation: RAT LIVER S-9, PHENOBARBITAL AND BETA-NAPHTHOFLAVONE, Method: PREINCUBATION) was “inactive; negative” and the mutagenic call (Test System: AMES SALMONELLA TYPHIMURIUM, Strain/Indicator: TA1537, Metabolic Activation: RAT, LIVER, S-9, AROCLOR 1254, Method: STANDARD PLATE) was “inactive; negative”. The mutagenic call (Test System: AMES SALMONELLA TYPHIMURIUM, Strain/Indicator: TA1537, Metabolic Activation: RAT, LIVER, S-9, PHENOBARBITAL AND BETA-NAPHTHOFLAVONE, Method: GAS EXPOSURE) was “inactive; negative”, the mutagenic call (Test System: AMES SALMONELLA TYPHIMURIUM, Strain/Indicator: TA1538, Metabolic Activation: HAMSTER, LIVER, S-9, AROCLOR 1254, Method: STANDARD PLATE) was “inactive; negative” and the mutagenic call (Test System: AMES SALMONELLA TYPHIMURIUM, Strain/Indicator: TA1538, Metabolic Activation: NONE, Method: PREINCUBATION) was “inactive; negative”. The mutagenic call (Test System: AMES SALMONELLA TYPHIMURIUM, Strain/Indicator: TA1538, Metabolic Activation: NONE, Method: STANDARD PLATE) was “inactive; negative”, the mutagenic call (Test System: AMES SALMONELLA TYPHIMURIUM, Strain/Indicator: TA1538, Metabolic Activation: RAT LIVER S-9, PHENOBARBITAL AND BETA-NAPHTHOFLAVONE, Method: PREINCUBATION) was “inactive; negative” and the mutagenic call (Test System: AMES SALMONELLA TYPHIMURIUM, Strain/Indicator: TA1538, Metabolic Activation: RAT, LIVER, S-9, AROCLOR 1254, Method: STANDARD PLATE) was “inactive; negative”. The mutagenic call (Test System: E. COLI, Strain/Indicator: WP2UVRA, Metabolic Activation: NONE, Method: GAS EXPOSURE) was “inactive; negative”, the mutagenic call (Test System: E. COLI, Strain/Indicator: WP2UVRA, Metabolic Activation: RAT, LIVER, S-9, PHENOBARBITAL AND BETA-NAPHTHOFLAVONE, Method: GAS EXPOSURE) was “inactive; negative” and the mutagenic call (Test System: E.COLI, Strain/Indicator: WP2UVRA, Metabolic Activation: NONE, Method: PREINCUBATION) was “inactive; negative”. The mutagenic call (Test System: E.COLI, Strain/Indicator: WP2UVRA, Metabolic Activation: RAT LIVER S-9, PHENOBARBITAL AND BETA-NAPHTHOFLAVONE, Method: PREINCUBATION) was “inactive; negative”, the mutagenic call (Test System: HUMAN SKIN FIBROBLASTS, Strain/Indicator: 6-THIOGUANINE, Metabolic Activation: NONE) was “active; positive” and the mutagenic call (Test System: MOUSE LYMPHOMA, Strain/Indicator: L5178Y (TK+/TK-), Metabolic Activation: RAT, LIVER, S-9, AROCLOR 1254, Method: SUSPENSION/PLATE) was “active; positive. reevaluation of results: inconclusive”.
